Reference: US9511058B2, “Methods for using carboxamide, sulfonamide and amine compounds” (Rigel Pharmaceuticals, Inc., priority 2010, dated 2016)

Target: AMPK
Assay: AMPK activation, enzyme-linked immunosorbent assay
Format: biochemical
[1] = compounds of Table 5 (Table 10)

N#Cc1ccc(CN2CCC(NC(=O)c3ccc(C(=O)N4CCN(Cc5ccc(F)cc5)CC4)cn3)CC2)cc1 [4-2, N-(1-(4-cyanobenzyl)piperidin-4-yl)-5-(4-(4-fluorobenzyl)piperazine-1-carbonyl)picolinamide]
EC50 (compounds of Table 4 (Table 9)): < 0.5 µM

N#Cc1ccc(CN2CCC(NC(=O)c3ccc(C(=O)N4CCN(Cc5ccc(C(F)(F)F)cc5)CC4)cn3)CC2)cc1 [4-3, N-(1-(4-cyanobenzyl)piperidin-4-yl)-5-(4-(4-(trifluoromethyl)benzyl)piperazine-1-carbonyl)picolinamide]
EC50 (compounds of Table 4 (Table 9)): < 0.5 µM

O=C(N[C@H]1CCN(Cc2ccc(F)cc2)C1)c1ccc(C(=O)N2CCN(c3ccc(Cl)cc3)CC2)cn1 [4-4, (S)-5-(4-(4-chlorophenyl)piperazine-1-carbonyl)-N-(1-(4-fluorobenzyl)pyrrolidin-3-yl)picolinamide]
EC50 (compounds of Table 4 (Table 9)): 1 to 5 µM

O=C(N[C@H]1CCN(Cc2ccncc2)C1)c1ccc(C(=O)N2CCN(c3ccc(Cl)cc3)CC2)cn1 [4-5, (S)-5-(4-(4-chlorophenyl)piperazine-1-carbonyl)-N-(1-(pyridin-4-ylmethyl)pyrrolidin-3-yl)picolinamide]
EC50 (compounds of Table 4 (Table 9)): 1 to 5 µM

N#Cc1ccc(CN2CC[C@H](NC(=O)c3ccc(C(=O)N4CCN(c5ccc(Cl)cc5)CC4)cn3)C2)cc1 [4-6, (S)-5-(4-(4-chlorophenyl)piperazine-1-carbonyl)-N-(1-(4-cyanobenzyl)pyrrolidin-3-yl)picolinamide]
EC50 (compounds of Table 4 (Table 9)): 0.5 to 1 µM

O=C(N[C@H]1CCN(Cc2ccc(Cl)cc2)C1)c1ccc(C(=O)N2CCN(c3ccc(Cl)cc3)CC2)cn1 [4-7, N-(1-(4-chlorobenzyl)pyrrolidin-3-yl)-5-(4-(4-chlorophenyl)piperazine-1-carbonyl)picolinamide]
EC50 (compounds of Table 4 (Table 9)): 1 to 5 µM

O=C(N[C@H]1CCN(Cc2ccc(C(F)(F)F)cc2)C1)c1ccc(C(=O)N2CCN(c3ccc(Cl)cc3)CC2)cn1 [4-8, 5-(4-(4-chlorophenyl)piperazine-1-carbonyl)-N-(1-(4-(trifluoromethyl)benzyl)pyrrolidin-3-yl)picolinamide]
EC50 (compounds of Table 4 (Table 9)): 1 to 5 µM

COc1ccc(CN2CCC(Oc3ccc(C(=O)NC4CCN(Cc5ccccc5)CC4)cc3Cl)CC2)cc1 [5-1, N-(1-benzylpiperidin-4-yl)-3-chloro-4-(1-(4-methoxybenzyl)piperidin-4-yloxy)benzamide]
EC50 [1]: < 1 µM

COc1cc(C(=O)NC2CCN(Cc3ccccc3)CC2)ccc1OC1CCN(Cc2ccccc2)CC1 [5-2, N-(1-benzylpiperidin-4-yl)-4-(1-benzylpiperidin-4-yloxy)-3-methoxybenzamide]
EC50 [1]: < 1 µM

O=C(NC1CCN(Cc2ccccc2)CC1)c1ccc(OC2CCN(Cc3ccco3)CC2)cc1 [5-3, N-(1-benzylpiperidin-4-yl)-4-(1-(furan-2-ylmethyl)piperidin-4-yloxy)benzamide]
EC50 [1]: 1 to 10 µM

Cn1cncc1CN1CCC(Oc2ccc(C(=O)NC3CCN(Cc4ccccc4)CC3)cc2)CC1 [5-4, N-(1-benzylpiperidin-4-yl)-4-(1-((1-methyl-1H-imidazol-5-yl)methyl)piperidin-4-yloxy)benzamide]
EC50 [1]: > 100 µM

Cn1cncc1CN1CCC(Oc2ccc(C(=O)NC3CCN(Cc4ccccc4)CC3)cc2Cl)CC1 [5-5, N-(1-benzylpiperidin-4-yl)-3-chloro-4-(1-((1-methyl-1H-imidazol-5-yl)methyl)piperidin-4-yloxy)benzamide]
EC50 [1]: 50 to 100 µM

O=C(NC1CCN(Cc2ccccc2)CC1)c1ccc(OC2CCN(Cc3ccncc3)CC2)c(Cl)c1 [5-6, N-(1-benzylpiperidin-4-yl)-3-chloro-4-(1-(pyridin-4-ylmethyl)piperidin-4-yloxy)benzamide]
EC50 [1]: < 1 µM

COc1cc(C(=O)NC2CCN(Cc3ccccc3)CC2)ccc1OC1CCN(CCCc2ccccc2)CC1 [5-7, N-(1-benzylpiperidin-4-yl)-3-methoxy-4-(1-(3-phenylpropyl)piperidin-4-yloxy)benzamide]
EC50 [1]: < 1 µM

COc1cc(C(=O)NC2CCN(Cc3ccccc3)CC2)ccc1OC1CCN(c2cccs2)CC1 [5-8, N-(1-benzylpiperidin-4-yl)-3-methoxy-4-(1-(thiophen-2-yl)piperidin-4-yloxy)benzamide]
EC50 [1]: 1 to 10 µM

COc1cc(C(=O)NC2CCN(Cc3ccccc3)CC2)ccc1OC1CCN(S(C)(=O)=O)CC1 [5-9, N-(1-benzylpiperidin-4-yl)-3-methoxy-4-(1-(methylsulfonyl)piperidin-4-yloxy)benzamide]
EC50 [1]: 20 to 50 µM

O=C(NC1CCN(Cc2ccccc2)CC1)c1ccc(OC2CCN(c3cccs3)CC2)c(Cl)c1 [5-10, N-(1-benzylpiperidin-4-yl)-3-chloro-4-(1-(thiophen-2-yl)piperidin-4-yloxy)benzamide]
EC50 [1]: 1 to 10 µM

O=C(NC1CCN(Cc2ccccc2)CC1)c1ccc(OC2CCN(c3ccco3)CC2)c(Cl)c1 [5-11, N-(1-benzylpiperidin-4-yl)-3-chloro-4-(1-(furan-2-yl)piperidin-4-yloxy)benzamide]
EC50 [1]: 1 to 10 µM

COc1cc(C(=O)NC2CCN(Cc3ccccc3)CC2)ccc1OC1CCN(c2ccco2)CC1 [5-12, N-(1-benzylpiperidin-4-yl)-3-methoxy-4-(1-(furan-2-yl)piperidin-4-yloxy)benzamide]
EC50 [1]: 1 to 10 µM

O=C(NC1CCN(Cc2ccccc2)CC1)c1cccc(OC2CCN(Cc3ccccc3)CC2)c1 [5-13, N-(1-benzylpiperidin-4-yl)-3-(1-benzylpiperidin-4-yloxy)benzamide]
EC50 [1]: 20 to 50 µM

O=C(NC1CCN(Cc2ccccc2)CC1)c1ccc(OC2CCN(Cc3ccccc3)CC2)c(Cl)c1 [5-14, N-(1-benzylpiperidin-4-yl)-4-(1-benzylpiperidin-4-yloxy)-3-chlorobenzamide]
EC50 [1]: < 1 µM

O=C(NC1CCN(Cc2ccccc2)CC1)c1ccc(OC2CCN(Cc3ccc4c(c3)OCCO4)CC2)c(Cl)c1 [5-15, N-(1-benzylpiperidin-4-yl)-3-chloro-4-(1-((2,3-dihydrobenzo[b][1,4]dioxin-6-yl)methyl)piperidin-4-yloxy)benzamide]
EC50 [1]: < 1 µM

CC(C)(C)c1ccc(CN2CCC(Oc3ccc(C(=O)NC4CCN(Cc5ccccc5)CC4)cc3Cl)CC2)cc1 [5-16, N-(1-benzylpiperidin-4-yl)-4-(1-(4-tert-butylbenzyl)piperidin-4-yloxy)-3-chlorobenzamide]
EC50 [1]: < 1 µM

O=C(NC1CCN(Cc2ccccc2)CC1)c1ccc(OC2CCN(c3ccc(C(F)(F)F)cc3)CC2)c(Cl)c1 [5-17, N-(1-benzylpiperidin-4-yl)-3-chloro-4-(1-(4-(trifluoromethyl)phenyl)piperidin-4-yloxy)benzamide]
EC50 [1]: < 1 µM

O=C(NC1CCN(Cc2ccccc2)CC1)c1ccc(OC2CCN(C(=O)c3ccc(C(F)(F)F)cc3)CC2)c(Cl)c1 [5-18, N-(1-benzylpiperidin-4-yl)-3-chloro-4-(1-(4-(trifluoromethyl)benzoyl)piperidin-4-yloxy)benzamide]
EC50 [1]: < 1 µM

O=C(NC1CCN(Cc2ccccc2)CC1)c1ccc(OC2CCN(Cc3ccc(F)cc3)CC2)c(Cl)c1 [5-19, N-(1-benzylpiperidin-4-yl)-3-chloro-4-(1-(4-fluorobenzyl)piperidin-4-yloxy)benzamide]
EC50 [1]: < 1 µM

CC(C)(C)c1ccc(CN2CCC(Oc3ccc(C(=O)NC4CCN(Cc5ccccc5)CC4)cc3F)CC2)cc1 [5-20, N-(1-benzylpiperidin-4-yl)-3-fluoro-4-(1-(4-tert-butylbenzyl)piperidin-4-yloxy)benzamide]
EC50 [1]: < 1 µM

CC(c1ccccc1)N1CCC(Oc2ccc(C(=O)NC3CCN(Cc4ccccc4)CC3)cc2F)CC1 (stereo not shown) [5-21, N-(1-benzylpiperidin-4-yl)-3-fluoro-4-(1-(1-phenylethyl)piperidin-4-yloxy)benzamide]
EC50 [1]: 1 to 10 µM

O=C(NC1CCN(Cc2ccccc2)CC1)c1ccc(OC2CCN(C(=O)c3ccc(F)cc3)CC2)c(Cl)c1 [5-22, N-(1-benzylpiperidin-4-yl)-3-chloro-4-(1-(4-fluorobenzoyl)piperidin-4-yloxy)benzamide]
EC50 [1]: 1 to 10 µM

O=C(NC1CCN(Cc2ccccc2)CC1)c1ccc(OC2CCN(c3ccc(C(F)(F)F)cc3)CC2)c(F)c1 [5-23, N-(1-benzylpiperidin-4-yl)-3-fluoro-4-(1-(4-(trifluoromethyl)phenyl)piperidin-4-yloxy)benzamide]
EC50 [1]: < 1 µM

O=C(NC1CCN(Cc2ccccc2)CC1)c1ccc(OC2CCN(Cc3ccccc3C(F)(F)F)CC2)c(Cl)c1 [5-24, N-(1-benzylpiperidin-4-yl)-3-chloro-4-(1-(2-(trifluoromethyl)benzyl)piperidin-4-yloxy)benzamide]
EC50 [1]: 10 to 20 µM

O=C(NC1CCN(c2ccccc2)CC1)c1ccc(OC2CCN(c3ccc(C(F)(F)F)cc3)CC2)c(F)c1 [5-25, 3-fluoro-N-(1-phenylpiperidin-4-yl)-4-(1-(4-(trifluoromethyl)phenyl)piperidin-4-yloxy)benzamide]
EC50 [1]: > 100 µM

CC(C)(C)OC(=O)N1CCC(NC(=O)c2ccc(OC3CCN(c4ccc(C(F)(F)F)cc4)CC3)c(F)c2)CC1 [5-26, tert-butyl 4-(3-fluoro-4-(1-(4-(trifluoromethyl)phenyl)piperidin-4-yloxy)benzamido)piperidine-1-carboxylate]
EC50 [1]: < 1 µM

O=C(NC1CCN(Cc2ccc(F)cc2)CC1)c1ccc(OC2CCN(c3ccc(C(F)(F)F)cc3)CC2)c(F)c1 [5-27, 3-fluoro-N-(1-(4-fluorobenzyl)piperidin-4-yl)-4-(1-(4-(trifluoromethyl)phenyl)piperidin-4-yloxy)benzamide]
EC50 [1]: < 1 µM

O=C(NC1CCN(Cc2ccncc2)CC1)c1ccc(OC2CCN(c3ccc(C(F)(F)F)cc3)CC2)c(F)c1 [5-28, 3-fluoro-N-(1-(pyridin-4-ylmethyl)piperidin-4-yl)-4-(1-(4-(trifluoromethyl)phenyl)piperidin-4-yloxy)benzamide]
EC50 [1]: < 1 µM

O=C(NC1CCN(Cc2cccnc2)CC1)c1ccc(OC2CCN(c3ccc(C(F)(F)F)cc3)CC2)c(F)c1 [5-29, 3-fluoro-N-(1-(pyridin-3-ylmethyl)piperidin-4-yl)-4-(1-(4-(trifluoromethyl)phenyl)piperidin-4-yloxy)benzamide]
EC50 [1]: < 1 µM

CC(C)(C)C(=O)N1CCC(NC(=O)c2ccc(OC3CCN(c4ccc(C(F)(F)F)cc4)CC3)c(F)c2)CC1 [5-30, 3-fluoro-N-(1-pivaloylpiperidin-4-yl)-4-(1-(4-(trifluoromethyl)phenyl)piperidin-4-yloxy)benzamide]
EC50 [1]: < 1 µM
